# In PubChem BioAssay (NCI):
#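 Each compound was tested at five concentrations against cells in 96-well plates for 48 hours. GI50: concentration for 50% inhibition of growth. TGI is the concentration that stops growth completely.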
# Tests used:
# Assay in all cases: NCI tumour cell line growth inhibition, 48 h
# HOP-62 NSCLC = system: HOP-62 NSCLC
# SF-295 CNS = system: SF-295 CNS
# SF-268 CNS = system: SF-268 CNS
# 786-0 renal = system: 786-0 renal
# SN12C renal = system: SN12C renal
# SK-MEL-28 melanoma = system: SK-MEL-28 melanoma
# M14 melanoma = system: M14 melanoma
# SF-539 CNS = system: SF-539 CNS
# HL-60(TB) leukemia = system: HL-60(TB) leukemia
# RXF 393 renal = system: RXF 393 renal
Structure (SMILES),TGI (HOP-62 NSCLC) [µM],TGI (SF-295 CNS) [µM],TGI (SF-268 CNS) [µM],TGI (786-0 renal) [µM],TGI (SN12C renal) [µM],TGI (SK-MEL-28 melanoma) [µM],TGI (M14 melanoma) [µM],GI50 (HOP-62 NSCLC) [µM],GI50 (SF-295 CNS) [µM],GI50 (SF-539 CNS) [µM],TGI (SF-539 CNS) [µM],GI50 (HL-60(TB) leukemia) [µM],TGI (HL-60(TB) leukemia) [µM],GI50 (RXF 393 renal) [µM],TGI (RXF 393 renal) [µM],GI50 (SF-268 CNS) [µM],GI50 (786-0 renal) [µM],GI50 (SN12C renal) [µM],GI50 (SK-MEL-28 melanoma) [µM],GI50 (M14 melanoma) [µM]
O=C1OC(=O)C2C1C1C(c3ccccc3)=C(c3ccccc3)C2(O)C2C(=O)OC(=O)C12 (centres undefined),> 100,> 100,> 100,> 100,> 100,> 100,> 100,–,–,–,–,–,–,–,–,–,–,–,–,–
CCN1C(=O)N(CC)C2C1NN=c1s/c(=C\c3cnc(C)n3C)c(=O)n12 (centres undefined),> 100,> 100,> 100,> 100,> 100,> 100,–,2.59,1.21,1.78,5.19,1.61,4.03,1.2,5.38,4.1,6.54,4.64,5.2,–
C/C(=N\NS(=O)(=O)c1ccccc1)c1ccc[n+]([O-])n1,> 100,> 100,> 100,> 100,> 100,> 100,> 100,–,–,–,> 100,–,69.9,–,–,–,–,–,–,–
O=C(O)CSc1nnc2c3ccccc3c3ccccc3c2n1,> 100,> 100,> 100,> 100,> 100,> 100,> 100,–,–,–,> 100,–,–,–,> 100,–,–,–,–,–
Nc1nc(N)c(-c2ccc(Cl)cc2)c(/C=C/c2ccc([N+](=O)[O-])cc2)n1,31.1,> 100,93.9,44.9,> 100,> 100,> 100,11.9,4.39,7.15,30,5.64,> 100,–,–,8.32,5.81,8.02,26.6,7.15
N#CC(CC(=O)O)=C(c1ccccc1)c1ccccc1,> 100,> 100,> 100,> 100,> 100,> 100,> 100,–,–,–,> 100,–,–,–,–,–,–,–,–,–
O=C(N/N=C/c1cccc(O)c1)c1ccc(C(F)(F)F)nc1Nc1cccc(C(F)(F)F)c1,6.95,–,6.13,5.17,6.34,10.1,5.02,2.35,–,1.78,4.03,1.56,3.45,1.13,8.85,1.04,1.92,1.79,1.89,1.89
C[C@H](CCCOS(C)(=O)=O)[C@H]1CC[C@H]2[C@@H]3CC[C@@H]4C[C@H](OS(C)(=O)=O)CC[C@]4(C)[C@H]3CC[C@]12C,–,1340,–,–,–,> 2500,> 2500,493,532,586,–,–,–,367,> 2500,590,523,799,1060,706
CC(C)CC1NC(=O)C(C(C)C)NC(=O)CC(C)COC(=O)C(CC(C)C)N(C)C(=O)C(C(C)C)NC(=O)C(C(C)C)OC1=O (centres undefined),> 50,> 50,> 50,> 50,> 50,> 50,> 50,–,–,–,27.5,–,–,–,35.2,–,–,–,–,–
